Source: patent publication US11793849B2, “Method of Chinese herbal medicine extract used for treating multiple diseases caused by drug resistant bacteria infection” (priority 2016, dated 2023)
In brackets after ≈: the same amount, converted by molar mass. Where two headings read alike, the source gives them in different places.

Columns and labels:
[1] = tested on: MDRAB; test: MIC determination, microdilution broth method; type: cell-based, Acinetobacter baumannii
Protocol: Determination methods of a Minimal Inhibitory Concentration (MIC) and a Minimum Bactericidal Concentration (MBC) of a test product: the MIC and the MBC of the Pithecellobium clypearia Benth water or ethanol extract to the MDRAB are determined by a microdilution broth method. And it is operated by referring to the microdilution broth method recommended by National Committee for Clinical Laboratory Standards (NCCLS).

[2] = tested on: MDRAB; test: Checkerboard assay (combined-use MIC, FIC); type: cell-based, Acinetobacter baumannii; conditions: for FIC, all strains / MIC50 of the antibiotic after combined use / reduction of the antibiotic's MIC50 vs single use / reduction of the antibiotic's MIC90 vs single use / share of strains with FIC ≤ 0.5: 20 MDRABs; for MIC: Acinetobacter baumannii, read-out: single-use MIC
Protocol: Test methods of the sensibilization effects of the test product to similar antibiotics: it is operated by referring to a checkerboard assay recommended by NCCLS.
The checkerboard assay is performed in a 96-pore sterile culture plate.
Calculation of a Fractional Inhibitory Concentration (FIC): FIC=S20b combined-use MIC/S20b single-use MIC+antibiotic combined-use MIC/antibiotic single-use MIC. By calculating the FIC, the combined antibacterial interaction between the EA and the antibiotic is evaluated, with synergistic effect for FIC≤0.5, additive effect for 0.5<FIC≤1, indifferent effect for 1<FIC≤2 and antagonistic effect for FIC>2. According to a sterile growth pore, the optimum concentration ratio between the EA and the antibiotic is founded out. At last, the effect of the EA to strengthen the efficacy of the antibiotic is evaluated.

[3] = tested on: ATCC27853; test: MIC determination, control strain; type: cell-based; conditions: read-out: MIC
Protocol: Determination methods of a Minimal Inhibitory Concentration (MIC) and a Minimum Bactericidal Concentration (MBC) of a test product: the MIC and the MBC of the Pithecellobium clypearia Benth water or ethanol extract to the MDRAB are determined by a microdilution broth method.

[4] = antibiotic with 60% ethanol extract
[5] = antibiotic with 95% ethanol extract
[6] = antibiotic with EA (10% ethanol extract)
[7] = antibiotic with EA (water extract)

CN(C)[C@@H]1C(O)=C(C(N)=O)C(=O)[C@@]2(O)C(O)=C3C(=O)c4c(O)cccc4[C@@](C)(O)[C@H]3C[C@@H]12 [TE, Tetracycline]
MIC ([1]; Acinetobacter baumannii, strain A4, EA=60% ethanol extract, read-out: MIC): 8 µg/mL (≈ 18 µM)
MIC ([1]; Acinetobacter baumannii, strain A4, EA=95% ethanol extract, read-out: MIC): 8 µg/mL (≈ 18 µM)
MIC ([1]; Acinetobacter baumannii, strain A4, single use, EA=10% ethanol extract, read-out: MIC): 8 µg/mL (≈ 18 µM)
MIC ([1]; Acinetobacter baumannii, strain A4, single use, EA=water extract, read-out: MIC): 8 µg/mL (≈ 18 µM)
MIC ([1]; Acinetobacter baumannii, strain A5, EA=60% ethanol extract, read-out: MIC): 32 µg/mL (≈ 72 µM)
MIC ([1]; Acinetobacter baumannii, strain A5, EA=95% ethanol extract, read-out: MIC): 32 µg/mL (≈ 72 µM)
MIC ([1]; Acinetobacter baumannii, strain A5, single use, EA=10% ethanol extract, read-out: MIC): 32 µg/mL (≈ 72 µM)
MIC ([1]; Acinetobacter baumannii, strain A5, single use, EA=water extract, read-out: MIC): 32 µg/mL (≈ 72 µM)
MIC ([1]; strain A15, single use, EA=10% ethanol extract): 1024 µg/mL (≈ 2300 µM)
MIC ([1]; strain A15, single use, EA=water extract): 1024 µg/mL (≈ 2300 µM)
FIC, all strains [2, 4]: ≤ 1
MIC50 of the antibiotic after combined use [2, 4]: 32 µg/mL
reduction of the antibiotic's MIC50 vs single use [2, 4]: 87.5%
reduction of the antibiotic's MIC90 vs single use [2, 4]: 75%
share of strains with FIC ≤ 0.5 [2, 4]: 50%
FIC, all strains [2, 5]: ≤ 1
MIC50 of the antibiotic after combined use [2, 5]: 32 µg/mL
reduction of the antibiotic's MIC50 vs single use [2, 5]: 87.5%
reduction of the antibiotic's MIC90 vs single use [2, 5]: 75%
share of strains with FIC ≤ 0.5 [2, 5]: 35%
FIC, all strains [2, 6]: ≤ 1
MIC50 of the antibiotic after combined use [2, 6]: 64 µg/mL
reduction of the antibiotic's MIC50 vs single use [2, 6]: 75%
reduction of the antibiotic's MIC90 vs single use [2, 6]: 50%
share of strains with FIC ≤ 0.5 [2, 6]: 45%
FIC, all strains [2, 7]: ≤ 1
MIC50 of the antibiotic after combined use [2, 7]: 64 µg/mL
reduction of the antibiotic's MIC50 vs single use [2, 7]: 75%
reduction of the antibiotic's MIC90 vs single use [2, 7]: 75%
share of strains with FIC ≤ 0.5 [2, 7]: 35%
MIC ([2]; strain A4, EA=60% ethanol extract): 8 µg/mL
MIC ([2]; strain A4, EA=95% ethanol extract): 8 µg/mL
MIC ([2]; strain A5 (printed AS in tables A43, A45), EA=95% ethanol extract): 32 µg/mL
MIC ([2]; strain A5, EA=60% ethanol extract): 32 µg/mL
MIC ([2]; strain A15, EA=60% ethanol extract): 1020 µg/mL
MIC ([2]; strain A15, EA=95% ethanol extract): 1020 µg/mL
combined-use MIC ([2]; strain A1, EA (10% ethanol extract) with TE): 1 µg/mL
combined-use MIC ([2]; strain A1, EA (60% ethanol extract) + TE combined): 1 µg/mL
combined-use MIC ([2]; strain A1, EA (95% ethanol extract) + TE combined): 1 µg/mL
combined-use MIC ([2]; strain A1, EA (water extract) with TE): 1 µg/mL
combined-use MIC ([2]; strain A2, EA (10% ethanol extract) with TE): 64 µg/mL
combined-use MIC ([2]; strain A2, EA (60% ethanol extract) + TE combined): 64 µg/mL
combined-use MIC ([2]; strain A2, EA (95% ethanol extract) + TE combined): 64 µg/mL
combined-use MIC ([2]; strain A3, EA (10% ethanol extract) with TE): 64 µg/mL
combined-use MIC ([2]; strain A3, EA (60% ethanol extract) + TE combined): 32 µg/mL
combined-use MIC ([2]; strain A3, EA (95% ethanol extract) + TE combined): 32 µg/mL
combined-use MIC ([2]; strain A3, EA (water extract) with TE): 64 µg/mL
combined-use MIC ([2]; strain A4, EA (10% ethanol extract) with TE): 2 µg/mL
combined-use MIC ([2]; strain A4, EA (60% ethanol extract) + TE combined): 1 µg/mL
combined-use MIC ([2]; strain A4, EA (95% ethanol extract) + TE combined): 1 µg/mL
combined-use MIC ([2]; strain A4, EA (water extract) with TE): 2 µg/mL
combined-use MIC ([2]; strain A5, EA (10% ethanol extract) with TE): 4 µg/mL
combined-use MIC ([2]; strain A5, EA (60% ethanol extract) + TE combined): 8 µg/mL
combined-use MIC ([2]; strain A5, EA (95% ethanol extract) + TE combined): 8 µg/mL
combined-use MIC ([2]; strain A5, EA (water extract) with TE): 4 µg/mL
combined-use MIC ([2]; strain A6, EA (10% ethanol extract) with TE): 64 µg/mL
combined-use MIC ([2]; strain A6, EA (water extract) with TE): 64 µg/mL
combined-use MIC ([2]; strain A8, EA (10% ethanol extract) with TE): 64 µg/mL
combined-use MIC ([2]; strain A8, EA (60% ethanol extract) + TE combined): 32 µg/mL
combined-use MIC ([2]; strain A8, EA (95% ethanol extract) + TE combined): 32 µg/mL
combined-use MIC ([2]; strain A9, EA (10% ethanol extract) with TE): 32 µg/mL
combined-use MIC ([2]; strain A9, EA (60% ethanol extract) + TE combined): 32 µg/mL
combined-use MIC ([2]; strain A9, EA (95% ethanol extract) + TE combined): 32 µg/mL
combined-use MIC ([2]; strain A9, EA (water extract) with TE): 64 µg/mL
combined-use MIC ([2]; strain A10, EA (10% ethanol extract) with TE): 32 µg/mL
combined-use MIC ([2]; strain A10, EA (60% ethanol extract) + TE combined): 32 µg/mL
combined-use MIC ([2]; strain A10, EA (95% ethanol extract) + TE combined): 32 µg/mL
combined-use MIC ([2]; strain A10, EA (water extract) with TE): 64 µg/mL
combined-use MIC ([2]; strain A11, EA (10% ethanol extract) with TE): 64 µg/mL
combined-use MIC ([2]; strain A11, EA (60% ethanol extract) + TE combined): 32 µg/mL
combined-use MIC ([2]; strain A11, EA (95% ethanol extract) + TE combined): 32 µg/mL
combined-use MIC ([2]; strain A11, EA (water extract) with TE): 64 µg/mL
combined-use MIC ([2]; strain A14, EA (60% ethanol extract) + TE combined): 32 µg/mL
combined-use MIC ([2]; strain A14, EA (95% ethanol extract) + TE combined): 32 µg/mL
combined-use MIC ([2]; strain A14, EA (water extract) with TE): 32 µg/mL
combined-use MIC ([2]; strain A15, EA (60% ethanol extract) + TE combined): 64 µg/mL
combined-use MIC ([2]; strain A15, EA (95% ethanol extract) + TE combined): 64 µg/mL
combined-use MIC ([2]; strain A15, EA (water extract) with TE): 64 µg/mL
combined-use MIC ([2]; strain A16, EA (water extract) with TE): 64 µg/mL
combined-use MIC ([2]; strain A17, EA (10% ethanol extract) with TE): 64 µg/mL
combined-use MIC ([2]; strain A18, EA (60% ethanol extract) + TE combined): 64 µg/mL
combined-use MIC ([2]; strain A19, EA (water extract) with TE): 64 µg/mL
combined-use MIC ([2]; strain A20, EA (60% ethanol extract) + TE combined): 32 µg/mL
combined-use MIC ([2]; strain A20, EA (95% ethanol extract) + TE combined): 32 µg/mL
combined-use MIC ([2]; strain A20, EA (water extract) with TE): 64 µg/mL
MIC ([3]; EA=10% ethanol extract): 8 µg/mL (≈ 18 µM)
MIC ([3]; EA=60% ethanol extract): 8 µg/mL (≈ 18 µM)
MIC ([3]; EA=95% ethanol extract): 8 µg/mL (≈ 18 µM)
MIC ([3]; EA=water extract): 8 µg/mL (≈ 18 µM)
